Reference: the PolyMetriX glass transition set
± gives the standard deviation of the reports.

Row | Structure (SMILES) | glass transition temperature
1 | *CCCCCCCCCCCCc1nc2ccc(-c3ccc4nc(*)oc4c3)cc2o1 (repeat unit) | 55.00 °C
2 | *c1ccc(Oc2ccc(-c3nc4ccc(Oc5ccc6nc(*)c(-c7ccccc7)c(-c7ccccc7)c6c5)cc4c(-c4ccccc4)c3-c3ccccc3)cc2)cc1 (repeat unit) | 305.00 °C
3 | *OC(=O)OCCCCOC(=O)OC1COC2C(*)COC12 (repeat unit) | 49.00 °C
4 | *O[Si](*)(C)CCCCCCCCCCC(=O)Oc1ccc(C(=O)OCCOc2ccc(C(=O)OC3CCC4(C)C(=CCC5C4CCC4(C)C(C(C)CCCC(C)C)CCC54)C3)cc2)cc1 (repeat unit) | 25.00 °C
5 | *CCCC(C)CN1C(=O)c2ccc(C(=O)Oc3ccc4cc(OC(=O)c5ccc6c(c5)C(=O)N(*)C6=O)ccc4c3)cc2C1=O (repeat unit) | 130.00 °C
6 | *C(=O)Nc1ccc(C(c2ccc(NC(=O)c3ccc4c(c3)C(=O)N(c3c(C)cc(-c5cc(C)c(N6C(=O)c7ccc(*)cc7C6=O)c6ccccc56)c5ccccc35)C4=O)cc2)(C(F)(F)F)C(F)(F)F)cc1 (repeat unit) | 250.00 °C
7 | *c1cccc(N2C(=O)c3cccc(Oc4ccc(-c5ccc(Oc6cccc7c6C(=O)N(*)C7=O)cc5)cc4)c3C2=O)c1 (repeat unit) | 275.00 °C
8 | *C(=O)c1cc2c(cc1Cl)C(=O)N(c1cc(N3C(=O)c4cc(*)c(Cl)cc4C3=O)cc(C(F)(F)F)c1)C2=O (repeat unit) | 305.00 °C
9 | *O[Si](C)(C)O[Si](C)(C)Oc1c(C)cc(-c2cc(C)c(*)c(C)c2)cc1C (repeat unit) | 55.00 °C
10 | *Cc1ccc(C(C)(C)c2ccc(Cn3c(=O)c4cc5c(=O)n(*)c(=O)c5cc4c3=O)o2)o1 (repeat unit) | 138.00 °C
11 | *CCCCCCCCCCCCCCC(=O)N* (repeat unit) | -7.00 °C
12 | *OC(C)COC(C)COC(=O)c1ccc(C(*)=O)cc1 (repeat unit) | 37.00 °C
13 | *CC(*)(C)C(=O)OCCCCCCCCCCCCOc1ccc(C(=O)Oc2ccc(-c3cccc(OC(=O)c4ccc(OC(=O)c5ccc(OCCCCCCCCCCCC)cc5)cc4)c3)cc2)cc1 (repeat unit) | 74.50 °C
14 | *Oc1ccc(C(=O)NNC(=O)c2ccc(*)cc2)cc1 (repeat unit) | 263.00 °C
15 | *Oc1ccc(Oc2ccc(NC(=O)c3ccc(Oc4ccc(Oc5ccc(C(=O)Nc6ccc(*)cc6)cc5)cc4C)cc3)cc2)cc1 (repeat unit) | 200.00 °C
16 | *CCCCCCOc1ccc(/C=C2\CC/C(=C\c3ccc(OCCCCCCOP(=O)(O*)OCC)c(OC)c3)C2=O)cc1OC (repeat unit) | 75.00 °C
17 | *Nc1cc(NC(=O)CCCCC(*)=O)cc(-c2nnc(-c3ccccn3)o2)c1 (repeat unit) | 159.00 °C
18 | *NNC(=O)c1ccccc1C(=O)Nc1cccc(/C=C2\CCC/C(=C\c3cccc(NC(=O)c4ccccc4C(*)=O)c3)C2=O)c1 (repeat unit) | 195.00 °C
19 | *CC(COC(=O)O*)OCCCCOc1ccc(/C=C/c2ccc([N+](=O)[O-])cc2)cc1 (repeat unit) | 42.00 °C
20 | *Oc1ccc(/C(C)=N/c2ccc(/N=C(\C)c3ccc(Oc4ccc(C(C)(C)c5ccc(*)cc5)cc4)cc3)cc2)cc1 (repeat unit) | 161.00 °C
21 | *CC(CC(Cl)(Cl)Cl)O* (repeat unit) | -36.00 °C
22 | *Oc1cc(CCCCCCCC)cc(OC(=O)c2cccc(C(*)=O)c2)c1 (repeat unit) | 50.50 °C
23 | *CC(CCCCCCCCCCCCCCCC)C1C(=O)N(CCCCCCCCCCCC)C(=O)C1* (repeat unit) | 30.00 °C

Row | Structure (SMILES) | glass transition temperature
24 | *CCCCCCOC(=O)Nc1ccc(Cc2ccc(NC(=O)O*)cc2)cc1 (repeat unit) | 71.00 °C
25 | */C=C/C1CC(*)C2C(=O)N(c3cc(C(F)(F)F)cc(C(F)(F)F)c3)C(=O)C12 (repeat unit) | 162.00 °C
26 | */C=C/c1ccc(/C=C/[Si](C)(C)c2cccc([Si](*)(C)C)c2)cc1 (repeat unit) | 33.00 °C
27 | *c1ccc2c(c1)C(=O)N(c1ccc(C(C)(C)c3ccc(N4C(=O)c5ccc(C(*)(C(F)(F)F)C(F)(F)F)cc5C4=O)cc3)cc1)C2=O (repeat unit) | 310.00 °C
28 | *CCOC(=O)CCC(=O)OCCOC(=O)c1ccc(C(=O)O*)cc1 (repeat unit) | 24.00 °C
29 | *CC(*)c1ccc(C(=O)CCCC)cc1 (repeat unit) | 70.00 °C
30 | *CC(CS(C)(=O)=O)O* (repeat unit) | 85.00 °C
31 | *c1ccc(Oc2ccc(C(C)(C)c3ccc(Oc4ccc(-c5nnc(*)c6c(-c7ccccc7)c(-c7ccc8ccccc8c7)c(-c7ccc8ccccc8c7)c(-c7ccccc7)c56)cc4)cc3)cc2)cc1 (repeat unit) | 290.00 °C
32 | *Oc1ccc(C2(c3ccc(OC(*)=O)c(C)c3)CCCCC2)cc1C (repeat unit) | 137.50 °C
33 | *C(=O)Nc1ccc(Cc2ccc(N3C(=O)c4ccc(*)cc4C3=O)cc2)cc1 (repeat unit) | 279.50 °C
34 | *CC(*)(C)C(=O)OCCCCCOc1ccc(-c2ccc(C#N)cc2)cc1 (repeat unit) | 60.00 °C
35 | */C(Cl)=C(/*)CCCCCCCC (repeat unit) | 90.00 °C
36 | *CCOCCC(=O)O* (repeat unit) | -35.00 °C
37 | *CC(=O)Nc1ccc(Oc2ccc(Oc3ccc(NC(=O)CN4C(=O)c5ccc(C(=O)c6ccc7c(c6)C(=O)N(*)C7=O)cc5C4=O)cc3)cc2)cc1 (repeat unit) | 230.00 °C
38 | *C1c2cccc3cccc(c23)C1* (repeat unit) | 250.00 °C
39 | *c1ccc(Oc2ccc(C(C)(C)c3ccc(Oc4ccc(N5C(=O)c6ccc(Oc7ccc(C(C)(C)c8ccc(Oc9ccc%10c(c9)C(=O)N(*)C%10=O)cc8)cc7)cc6C5=O)cc4)cc3)cc2)cc1 (repeat unit) | 176.00 °C
40 | *Nc1cccc(/C=C/c2ccc(NC(=O)c3cccc(C(*)=O)c3)cc2)c1 (repeat unit) | 272.00 °C
41 | *CCOC(=O)c1ccc(C2(C)CC(C)(C)c3ccc(C(=O)O*)cc32)cc1 (repeat unit) | 154.00 °C
42 | */C=C/c1ccc(-c2nnc(-c3ccc(/C=C/c4ccc5c(c4)c4cc(-c6ccc7c(c6)c6cc(*)ccc6n7CCCCCCCC)ccc4n5CCCCCCCC)cc3)n2-c2ccccc2)cc1 (repeat unit) | 157.00 °C
43 | *C(=O)c1ccc2c(c1)C(=O)N(c1ccc(Oc3ccccc3N3C(=O)c4ccc(*)cc4C3=O)cc1)C2=O (repeat unit) | 282.50 °C
44 | *O[Si](C)(C)O[Si](C)(C)C#Cc1ccc(C#C[Si](*)(C)C)cc1 (repeat unit) | 104.00 °C
45 | *CCCCOc1ccc(CCc2ccc(O*)cc2C)cc1 (repeat unit) | 24.90 °C
46 | *CC(*)C(=O)N1CCOCC1 (repeat unit) | 150.00 °C

Row | Structure (SMILES) | glass transition temperature
47 | *C(F)(F)C(*)(F)C(F)(F)C(F)(F)C(F)(F)C(F)(F)C(F)(F)F (repeat unit) | 232.50 °C
48 | *CC(O)COC(=O)CCCCCCCCC(=O)OCC(O)COc1ccc(C(C)(C)c2ccc(O*)cc2)cc1 (repeat unit) | 30.00 °C
49 | *O[Si](C)(C)O[Si](*)(C)c1c(F)c(F)c(F)c(F)c1F (repeat unit) | -65.00 °C
50 | *CC(=O)Nc1ccc(S(=O)(=O)c2ccc(NC(=O)c3ccc4c(c3)C(=O)N(*)C4=O)cc2)cc1 (repeat unit) | 232.00 °C
51 | *CC(*)C(=O)OCc1ccc(C#N)cc1 (repeat unit) | 44.00 °C
52 | *c1cc(-c2nc3ccccc3oc2=O)cc(-n2c(=O)c3cc4c(=O)n(*)c(=O)c4cc3c2=O)c1 (repeat unit) | 130.00 °C
53 | *c1ccc(Nc2ccc(C3(c4ccc(Nc5ccc(S(*)(=O)=O)cc5)c(C)c4)c4ccccc4-c4ccccc43)cc2C)cc1 (repeat unit) | 269.00 °C
54 | *C(=O)c1ccc2c(c1)C(=O)N(c1ccc(Cc3ccc(C(=O)c4ccc(N5C(=O)c6ccc(*)cc6C5=O)cc4)cc3)cc1)C2=O (repeat unit) | 307.00 °C
55 | *C[Si](*)(C)C (repeat unit) | -90.00 °C
56 | *c1ccc(*)s1 (repeat unit) | 152.17 ± 89 °C
57 | *CC(*)(C)C(=O)OCCCCCCOc1ccc(/N=N/c2ccc(OCCCCCCCCCC)cc2)cc1 (repeat unit) | 110.00 °C
58 | *Oc1ccc(S(=O)c2ccc(Oc3ccc(C(C)(C)c4ccc(*)cc4)cc3)cc2)cc1 (repeat unit) | 165.00 °C
59 | *Oc1ccc(C2(c3ccc(OC(=O)c4cccc(C(*)=O)c4)cc3)CCCCC2)cc1 (repeat unit) | 127.00 °C
60 | *Nc1ccc(NC(=O)CCCCCCCCC(*)=O)cc1 (repeat unit) | 125.00 °C
61 | */C=N/c1ccc(C(=O)OCCCCOCCCCOCCCCOC(=O)c2ccc(/N=C/c3ccc4c(c3)c3cc(*)ccc3n4CC(CC)CCCC)cc2)cc1 (repeat unit) | 5.20 °C
62 | *OP(=O)(Oc1ccc([N+](=O)[O-])cc1)Oc1c(C)cc(S(=O)(=O)c2cc(C)c(*)c(C)c2)cc1C (repeat unit) | 173.00 °C
63 | *CC(O)CN(CC(O)CN(*)c1ccccc1)c1ccc(/N=N/c2ccc([N+](=O)[O-])cc2)cc1 (repeat unit) | 70.00 °C
64 | *CCCCCC(=O)Oc1ccc(OC(=O)CCCCCn2c(=O)c3cc4c(=O)n(*)c(=O)c4cc3c2=O)c(Cl)c1 (repeat unit) | 87.00 °C
65 | *c1ccc(Oc2c(C)cc(C(c3cc(C)c(Oc4ccc(-n5c(=O)c6cc7c(=O)n(*)c(=O)c7cc6c5=O)cc4)c(C)c3)c3cccc4ccccc34)cc2C)cc1 (repeat unit) | 315.00 °C
66 | *CC(*)(C)C(=O)OCCOCCOCC[N+](CC)(CC)CCCCS(=O)(=O)O (repeat unit) | 27.00 °C
67 | *CCOC(=O)Nc1ccc(Cc2ccc(NC(=O)O*)cc2)cc1 (repeat unit) | 139.00 °C
68 | *CCCCCCCCCCC(=O)Oc1ccc2cc(OC(=O)CCCCCCCCCCn3c(=O)c4cc5c(=O)n(*)c(=O)c5cc4c3=O)ccc2c1 (repeat unit) | 66.00 °C
